Measured values taken from patent US10111877B2, “Modulators of androgen synthesis” (Tangent Reprofiling Limited, priority 2012, dated 2018).

System: BxPC-3 cells
Test: Resazurin-based cell viability assay, pancreatic cancer cell line
Settings: 72 hours, combination equimolar, 100% = no drug, 0% = Paclitaxel
Procedure: To determine whether Risperidone alone, or in combination with CLA could inhibit cell growth of cells taken from a pancreatic cancer cell line overexpressing HSD10, a resazurin-based cell viability assay was conducted on Bx-PC3 cells.
BxPC-3 cells are from a cell line derived from a human pancreatic adenocarcinoma and are known to overexpress HSD10. BxPC-3 cells were seeded at a density of 4,000 cells per well in a 384 well plate, and incubated at 37° C., 5% CO2 for 24 hours in standard growth media (RPMI nutrient media, 5% heat-inactivated Fetal Calf Serum, 2 mM L-Glutamine). The media was then removed by pipette and replaced with 50 μL BxPC-3 treatment media comprising 125 μM fatty acid-free BSA, 2 mM L-Glutamine and one of the following drug treatments: 0.1 μM, 2 μM, or 50 μM Risperidone; 0.1 μM, 2 μM, or 50 μM CLA; or 0.1 μM, 2 μM, or 50 μM of Risperidone and CLA (in equimolar amounts). After incubation in the drug treatment for 72 hours at 37° C., 5% CO2, viable cell number was determined using a resazurin-based cell viability assay (PRESTOBLUE®; Invitrogen, Carlsbad, Calif.). To each well, 7 μL of PRESTOBLUE® reagent was added and the plates incubated for 60 minutes at 37° C., 5% CO2. After incubation, the fluorescence intensity of each well was determined using a microplate reader by excitation and 570 nm and recording emission at 600 nm. The percentage of viable cell number was calculated by normalizing the experimental fluorescence intensity, where 100% is set to cells receiving no drug treatment (cells metabolizing at optimal rate), and 0% is set to readings from cells treated with Paclitaxel (cells not metabolizing at all due to their destruction by anti-cancer drug). A value under 50% could be considered a useful indication of potential efficacy.

SMILES: CCCCCC/C=C/C=C\CCCCCCCC(=O)O [CLA, 9Z, 11E conjugated Linoleic acid]
- percentage of viable cell number (0.1 uM): 103%
- percentage of viable cell number (2 uM): 71%
- percentage of viable cell number (50 uM): 119%
